Key:
Format in all cases: biochemical
CDK2/CycA = biological target: T1, CDK2/CycA (Homo sapiens, UniProt P24941); assay: CDK2 Enzymatic Activity Assay (Lance Kinase Activity Assay, FRET); conditions: Table 5B; symbols per IC50 ranges of b615
T1 construct: purchased Proqinase
Procedure, shortened: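 Compounds serially diluted 1:3 over 8 steps, run with CDK2/CycA, ULight-MBP substrate and ATP in HEPES pH 7.5 buffer for 1 h at room temperature. LANCE TR-FRET detection with Eu-anti-phospho-MBP after EDTA stop; IC50 from sigmoidal dose-response curves.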

CDK7/CycH/Mat1 = biological target: T2, CDK7/CycH/Mat1 (Homo sapiens, UniProt P50613); assay: CDK7 Enzymatic Activity Assay (Lance Kinase Activity Assay, FRET); conditions: Table 5A; 25 μM ATP final; read-out: CDK7: IC50 [mM] for CDK7 inhibition (the above defined ranges apply)
T2 construct: purchased Carna
Procedure, shortened: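 TR-FRET (LANCE) kinase assay with ULight-MBP peptide substrate and Eu-labelled anti-phospho antibody; compounds in 8-point 1:3 series in HEPES 50 mM pH 7.5, MgCl2 10 mM, EGTA 1 mM, DTT 2 mM, 0.01% Tween-20.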

CDK9/Cyclin T1 = biological target: T3, CDK9/Cyclin T1 (Homo sapiens, UniProt P50750); assay: CDK9 Enzymatic Activity Assay (Lance Kinase Activity Assay, FRET); conditions: Table 5B; symbols per IC50 ranges of b615
T3 construct: purchased Invitrogen
Procedure, shortened: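 TR-FRET detection of ULight-MBP substrate phosphorylation by CDK9/cyclin T1 using a Eu-anti-phospho-MBP antibody, in 50 mM HEPES pH 7.5, 10 mM MgCl2, 1 mM EGTA, 2 mM DTT, 0.01% Tween-20. Kinase reaction 1 h at room temperature, then EDTA detection buffer for 1 h before reading.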

T3 sequence (P50750 whole entry): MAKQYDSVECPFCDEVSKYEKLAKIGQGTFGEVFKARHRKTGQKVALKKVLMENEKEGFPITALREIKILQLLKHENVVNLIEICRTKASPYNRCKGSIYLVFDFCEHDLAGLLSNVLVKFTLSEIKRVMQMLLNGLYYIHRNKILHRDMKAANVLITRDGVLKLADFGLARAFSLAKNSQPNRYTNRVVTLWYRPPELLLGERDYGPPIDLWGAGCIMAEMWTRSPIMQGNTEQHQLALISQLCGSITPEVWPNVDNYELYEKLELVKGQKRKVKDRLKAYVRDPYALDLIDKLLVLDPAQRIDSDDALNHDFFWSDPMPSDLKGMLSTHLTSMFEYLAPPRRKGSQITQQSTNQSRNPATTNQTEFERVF
T3 sequence (O60563 whole entry partner): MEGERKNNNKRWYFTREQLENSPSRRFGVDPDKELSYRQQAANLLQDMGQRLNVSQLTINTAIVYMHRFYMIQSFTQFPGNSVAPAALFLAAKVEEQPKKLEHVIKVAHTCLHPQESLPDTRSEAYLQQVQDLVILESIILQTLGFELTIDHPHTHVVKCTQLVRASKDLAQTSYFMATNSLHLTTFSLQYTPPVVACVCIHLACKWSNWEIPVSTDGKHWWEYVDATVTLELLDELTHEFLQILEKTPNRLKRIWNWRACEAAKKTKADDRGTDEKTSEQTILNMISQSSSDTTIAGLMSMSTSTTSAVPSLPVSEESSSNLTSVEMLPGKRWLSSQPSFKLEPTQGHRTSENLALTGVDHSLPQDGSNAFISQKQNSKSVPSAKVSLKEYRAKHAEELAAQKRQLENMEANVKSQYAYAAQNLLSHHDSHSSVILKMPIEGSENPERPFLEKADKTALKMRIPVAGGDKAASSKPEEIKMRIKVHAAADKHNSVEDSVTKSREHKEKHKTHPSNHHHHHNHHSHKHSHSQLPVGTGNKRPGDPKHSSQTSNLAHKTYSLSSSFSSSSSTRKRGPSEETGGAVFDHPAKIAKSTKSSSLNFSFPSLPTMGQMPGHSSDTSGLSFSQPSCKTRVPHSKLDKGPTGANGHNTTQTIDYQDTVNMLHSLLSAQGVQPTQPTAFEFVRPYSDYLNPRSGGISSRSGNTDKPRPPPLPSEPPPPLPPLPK
T2 sequence (P50613 whole entry): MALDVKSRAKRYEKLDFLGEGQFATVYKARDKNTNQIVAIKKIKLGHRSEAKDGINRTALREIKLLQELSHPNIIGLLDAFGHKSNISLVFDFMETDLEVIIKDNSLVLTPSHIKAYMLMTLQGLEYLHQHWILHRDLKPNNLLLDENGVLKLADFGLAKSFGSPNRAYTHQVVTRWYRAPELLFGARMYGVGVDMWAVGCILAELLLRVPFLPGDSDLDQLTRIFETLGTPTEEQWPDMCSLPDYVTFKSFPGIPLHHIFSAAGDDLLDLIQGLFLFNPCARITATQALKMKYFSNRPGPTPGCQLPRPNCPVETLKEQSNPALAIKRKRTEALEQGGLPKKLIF
T2 sequence (P51946 whole entry partner): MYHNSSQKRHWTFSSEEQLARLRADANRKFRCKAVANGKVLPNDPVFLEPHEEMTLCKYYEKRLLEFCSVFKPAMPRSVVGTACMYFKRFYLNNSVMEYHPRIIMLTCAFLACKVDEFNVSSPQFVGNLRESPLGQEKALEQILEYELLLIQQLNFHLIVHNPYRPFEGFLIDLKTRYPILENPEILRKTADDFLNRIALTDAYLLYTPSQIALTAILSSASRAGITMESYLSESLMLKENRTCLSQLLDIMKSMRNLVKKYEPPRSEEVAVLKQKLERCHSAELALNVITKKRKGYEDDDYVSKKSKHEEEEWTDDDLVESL
T2 sequence (P51948 whole entry partner): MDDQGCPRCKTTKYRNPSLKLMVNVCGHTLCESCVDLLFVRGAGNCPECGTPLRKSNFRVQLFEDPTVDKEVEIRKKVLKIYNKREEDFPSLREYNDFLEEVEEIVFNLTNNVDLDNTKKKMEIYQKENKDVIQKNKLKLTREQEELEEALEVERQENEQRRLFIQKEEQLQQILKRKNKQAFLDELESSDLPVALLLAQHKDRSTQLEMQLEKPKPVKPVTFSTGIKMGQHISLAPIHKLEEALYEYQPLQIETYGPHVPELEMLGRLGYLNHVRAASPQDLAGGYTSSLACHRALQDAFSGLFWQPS

Row | Structure (SMILES) | CDK2 IC50 range class (CDK2/CycA) | IC50 (CDK7/CycH/Mat1) [nM] | CDK9: Selectivity of CDK7 inhibition over CDK9 inhibition [fold] (CDK9/Cyclin T1)
1 | COc1cccc([C@H](C)Nc2nc(N3CCC34CCNCC4)nc3c(C(C)C)cnn23)c1 [(VIII-al), (S)-8-isopropyl-N-(1-(3-methoxyphenyl)ethyl)-2-(1,7-diazaspiro[3.5]nonan-1-yl)pyrazolo[1,5-a][1,3,5]triazin-4-amine] | +++ (IC50>2500 nM) | < 10 | +++ (IC50>2500 nM)
2 | COc1ccc([C@H](C)Nc2nc(OC3CCN(C)CC3)nc3c(C(C)C)cnn23)cc1 [(VII-aa), (S)-8-isopropyl-N-(1-(4-methoxyphenyl)ethyl)-2-((1-methylpiperidin-4-yl)oxy)pyrazolo[1,5-a][1,3,5]triazin-4-amine] | +++ (IC50>2500 nM) | > 100 | +++ (IC50>2500 nM)
3 | COc1cccc([C@H](C)Nc2nc(OC3COC4(CCNCC4)C3)nc3c(C(C)C)cnn23)c1 (stereo partly drawn) [(VII-bx), 2-(1-oxa-8-azaspiro[4.5]decan-3-yloxy)-8-isopropyl-N-((S)-1-(3-methoxyphenyl)ethyl)pyrazolo[1,5-a][1,3,5]triazin-4-amine] | +++ (IC50>2500 nM) | < 10 | +++ (IC50>2500 nM)
4 | CC(C)c1cnn2c(N[C@@H](C)c3cccc(OC(F)(F)F)c3)nc(O[C@@H]3CCCNC3)nc12 [(VII-ay), 8-isopropyl-2-((R)-piperidin-3-yloxy)-N-((S)-1-(3-(trifluoro-methoxy)phenyl)ethyl)pyrazolo[1,5-a][1,3,5]triazin-4-amine] | +++ (IC50>2500 nM) | 10 to 30 | +++ (IC50>2500 nM)
5 | COc1cccc([C@H](C)Nc2nc(O[C@@H]3CCCNC3)nc3c(C(C)C)cnn23)c1 [(VII-r), 8-isopropyl-N-((S)-1-(3-methoxyphenyl)ethyl)-2-((R)-piperidin-3-yloxy)pyrazolo[1,5-a][1,3,5]triazin-4-amine] | +++ (IC50>2500 nM) | < 10 | +++ (IC50>2500 nM)
6 | COc1cccc([C@H](C)Nc2nc(NCCCN3CCOCC3)nc3c(C(C)C)cnn23)c1 [(VIII-j), (S)-8-isopropyl-N4-(1-(3-methoxyphenyl)ethyl)-N2-(3-morpholinopropyl)pyrazolo[1,5-a][1,3,5]triazine-2,4-diamine] | +++ (IC50>2500 nM) | > 100 | +++ (IC50>2500 nM)
7 | COc1cccc([C@H](C)Nc2nc(NCCN3CCOCC3)nc3c(C(C)C)cnn23)c1 [(VIII-m), (S)-8-isopropyl-N4-(1-(3-methoxyphenyl)ethyl)-N2-(2-morpholinoethyl)pyrazolo[1,5-a][1,3,5]triazine-2,4-diamine] | +++ (IC50>2500 nM) | > 100 | +++ (IC50>2500 nM)
8 | COc1cccc([C@H](C)Nc2nc(OCCN(C)S(=O)(=O)C3CCNCC3)nc3c(C(C)C)cnn23)c1 [(VII-bw), (S)-N-(2-((8-isopropyl-4-((1-(3-methoxyphenyl)ethyl)amino)pyrazolo[1,5-a][1,3,5]triazin-2-yl)oxy)ethyl)-N-methylpiperidine-4-sulfonamide] | +++ (IC50>2500 nM) | < 10 | +++ (IC50>2500 nM)
9 | CC(C)c1cnn2c(N[C@@H](C)c3ccccc3Br)nc(O[C@@H]3CCCNC3)nc12 [(VII-be), N-((S)-1-(2-bromophenyl)ethyl)-8-isopropyl-2-((R)-piperidin-3-yloxy)pyrazolo[1,5-a][1,3,5]triazin-4-amine] | +++ (IC50>2500 nM) | < 10 | +++ (IC50>2500 nM)
10 | COc1cccc([C@H](C)Nc2nc(N[C@@H]3CCCNC3)nc3c(C(C)C)cnn23)c1 [(VIII-h), 8-isopropyl-N4-((S)-1-(3-methoxyphenyl)ethyl)-N2-((R)-piperidin-3-yl)pyrazolo[1,5-a][1,3,5]triazine-2,4-diamine] | +++ (IC50>2500 nM) | 10 to 30 | +++ (IC50>2500 nM)
11 | COc1cccc([C@H](C)Nc2nc(OC3CNC3)nc3c(C(C)C)cnn23)c1 [(VII-bv), (S)-2-(azetidin-S-yloxy)-8-isopropyl-N-(1-(3-methoxyphenyl)ethyl)pyrazolo[1,5-a][1,3,5]triazin-4-amine] | +++ (IC50>2500 nM) | < 10 | +++ (IC50>2500 nM)
12 | CC(C)c1cnn2c(NC(C)c3ccccc3C3CC3)nc(O[C@@H]3CCCNC3)nc12 (stereo partly drawn) [(VII-ao), N-(1-(2-cyclopropyl-phenyl)ethyl)-8-isopropyl-2-((R)-piperidin-3-yloxy)pyrazolo[1,5-a][1,3,5]triazin-4-amine] | +++ (IC50>2500 nM) | > 100 | +++ (IC50>2500 nM)

Continued, values first:

Row | CDK2 IC50 range class (CDK2/CycA) | IC50 (CDK7/CycH/Mat1) [nM] | CDK9: Selectivity of CDK7 inhibition over CDK9 inhibition [fold] (CDK9/Cyclin T1) | Structure (SMILES)
13 | +++ (IC50>2500 nM) | > 100 | +++ (IC50>2500 nM) | COc1cccc([C@H](C)Nc2nc(C(=O)NCCCN)nc3c(C(C)C)cnn23)c1 [(XXVI-5), (S)-N-(3-aminopropyl)-8-isopropyl-4-((1-(3-methoxyphenyl)ethyl)amino)pyrazolo[1,5-a][1,3,5]triazine-2-carboxamide]
14 | +++ (IC50>2500 nM) | > 100 | +++ (IC50>2500 nM) | COc1cccc([C@H](C)Nc2nc(CN(C)CCN3CCCC3)nc3c(C(C)C)cnn23)c1 [(XXIX-6), (S)-8-isopropyl-N-(1-(3-methoxyphenyl)ethyl)-2-((methyl(2-(pyrrolidin-1-yl)ethyl)amino)methyl)pyrazolo[1,5-a][1,3,5]triazin-4-amine]
15 | +++ (IC50>2500 nM) | > 100 | +++ (IC50>2500 nM) | COC(=O)C(CN)Nc1nc(N[C@@H](C)c2cccc(OC)c2)n2ncc(C(C)C)c2n1 (stereo partly drawn) [(VIII-y), methyl 3-amino-2-((8-isopropyl-4-(((S)-1-(3-methoxyphenyl)ethyl)amino)pyrazolo[1,5-a][1,3,5]triazin-2-yl)amino)propanoate]
16 | +++ (IC50>2500 nM) | > 100 | +++ (IC50>2500 nM) | COc1cccc([C@H](C)Nc2nc(CNCCN3CCOCC3)nc3c(C(C)C)cnn23)c1 [(XXIX-7), (S)-8-isopropyl-N-(1-(3-methoxyphenyl)ethyl)-2-(((2-morpholinoethyl)amino)methyl)pyrazolo[1,5-a][1,3,5]triazin-4-amine]
17 | +++ (IC50>2500 nM) | > 100 | +++ (IC50>2500 nM) | COc1cccc([C@H](C)Nc2nc(N3CC4CCNC4C3)nc3c(C(C)C)cnn23)c1 (stereo partly drawn) [(VIII-r), 2-(hexahydropyrrolo[3,4-b]pyrrol-5(1H)-yl)-8-isopropyl-N-((S)-1-(3-methoxyphenyl)ethyl)pyrazolo[1,5-a][1,3,5]triazin-4-amine]
18 | +++ (IC50>2500 nM) | > 100 | +++ (IC50>2500 nM) | COc1cccc([C@H](C)Nc2nc(N3CCCC(N)C3)nc3c(C(C)C)cnn23)c1 (stereo partly drawn) [(VIII-p), 2-(3-aminopiperidin-1-yl)-8-isopropyl-N-((S)-1-(3-methoxyphenyl)ethyl)pyrazolo[1,5-a][1,3,5]triazin-4-amine]
19 | +++ (IC50>2500 nM) | > 100 | +++ (IC50>2500 nM) | COc1cccc([C@H](C)Nc2nc(N(C)CCN3CCOCC3)nc3c(C(C)C)cnn23)c1 [(VIII-s), (S)-8-isopropyl-N4-(1-(3-methoxyphenyl)ethyl)-N2-methyl-N2-(2-morpholinoethyl)pyrazolo[1,5-a][1,3,5]triazine-2,4-diamine]
20 | +++ (IC50>2500 nM) | > 100 | +++ (IC50>2500 nM) | COc1cccc([C@H](C)Nc2nc(CNCCCN3CCOCC3)nc3c(C(C)C)cnn23)c1 [(XXIX-5), (S)-8-isopropyl-N-(1-(3-methoxyphenyl)ethyl)-2-(((3-morpholinopropyl)amino)methyl)pyrazolo[1,5-a][1,3,5]triazin-4-amine]
21 | +++ (IC50>2500 nM) | > 100 | +++ (IC50>2500 nM) | COc1cccc([C@H](C)Nc2nc(CNCCN)nc3c(C(C)C)cnn23)c1 [(XXIX-2), (S)-N1-((8-isopropyl-4-((1-(3-methoxyphenyl)ethyl)amino)pyrazolo[1,5-a][1,3,5]triazin-2-yl)methyl)ethane-1.2-diamine]
22 | +++ (IC50>2500 nM) | > 100 | +++ (IC50>2500 nM) | COc1cccc([C@H](C)Nc2nc(SC3CCNCC3)nc3c(C(C)C)cnn23)c1 [(X-e), (S)-8-isopropyl-N-(1-(3-methoxyphenyl)ethyl)-2-(piperidin-4-ylthio)pyrazolo[1,5-a][1,3,5]triazin-4-amine]

From patent US9096608B2, “Pharmaceutically active pyrazolo-triazine derivatives” (LEAD DISCOVERY CENTER GMBH, priority 2012, dated 2015)
